4 molecules from US6153589A, “2,3-epoxy alcohols, acids and derivatives as anti retroviral chemotherapeutic agents” (The United States of America as represented by the …, priority 1992, dated 2000) can be followed below.

Read-outs that look alike come from different tables or passages of the source.

The test system of the experiment is HIV1 IIIb. The experiment is described as follows: microbe, parasite or virus in culture. It is filed as cell-based. The note with it: Human immunodeficiency virus 1, IIIB; for viability at 10 µg/mL: 10 ug/ml; for viability at 0.1 µg/mL: 0.1 ug/ml; for viability at 1 µg/mL: 1 ug/ml; for viability at 100 µg/mL: 100 ug/ml; for viability at 4.07 µg/mL: 4.07 ug/ml; for viability at 34.6 µg/mL: 34.6 ug/ml; for viability at 29 µg/mL: 29 ug/ml; for viability at 24.8 µg/mL: 24.8 ug/ml; for viability at 4.7 µg/mL: 4.7 ug/ml, virus kill 22.0%. An excerpt: In-vitro Screening Anti--HIV XTT Assay
This assay, which is available to the public by the National Cancer Institute, utilizes colorimetry based on the production of a colored formazin from a tetrazolium salt by viable cells, to develop a safe, rapid and quantitative measure of HIV cytopathology. The assay is a modification of the previously described screening method for the detection of anti-tumor drug cytotoxicity (D. A. Scudiero, et al, Cancer Res, 48, 4827-4833 (1988)). It involves the plating of susceptible human "host" cells with and without virus in microculture plates, adding various concentrations of the respective test compounds, incubating the plates for seven days, during which time infected, non-drug treated control cells are largely or totally destroyed by the virus. The number of remaining viable cells are determined utilizing a calorimetric endpoint. A beneficial antiviral effect is indicated by a response % grater than the virus kill %, with 100% being optimal.
Anti-viral effect: Response (Viable Cells, determined by colorometric
absorbance of formazan dye produced) as % of uninfected controls
Virus Source: HIV1 IIIb; C, Virus producing H9 cells; V, cell free virus
Virus Kill: Infected untreated cells as % of uninfected cell controls
*: Culture redosed with compound after 3 days

[1] abbreviates: H9, 168 h, read-out: Antiviral Effect (viable cells as % of uninfected controls), run 1, source C (virus producing H9 cells), virus kill 21.0%.

Consider `CCCCCCCCCCC[C@@H]1O[C@@H]1C(=O)O` (relative stereo) [Example 19, (2S*-cis)-3-Undecyloxiranecarboxylic Acid], for which the viability at 10 µg/mL reads like this: (168 h, read-out: Antiviral Effect (viable cells as % of uninfected controls), run 4, source V (cell free virus), virus kill 57.0%) 63.9%; (168 h, read-out: Antiviral Effect (viable cells as % of uninfected controls), run 5, source V (cell free virus), virus kill 26.0%) 38.8%; (H9, 168 h, read-out: Antiviral Effect (viable cells as % of uninfected controls), run 2, source C (virus producing H9 cells), virus kill 15.0%) 55.7%. Under “168 h, read-out: Antiviral Effect (viable cells as % of uninfected controls), run 6, source V (cell free virus), virus kill 19.0%”, the viability at 0.1 µg/mL is 27.6%. For the same molecule, the viability at 1 µg/mL by setting is: (168 h, read-out: Antiviral Effect (viable cells as % of uninfected controls), run 7*, source V (cell free virus), virus kill 25.0%, culture redosed with compound after 3 days) 12.5%; under setting [1], 22.6%; (H9, 168 h, read-out: Antiviral Effect (viable cells as % of uninfected controls), run 3, source C (virus producing H9 cells), virus kill 13.0%) 11.6%.

For the molecule `CCCCCCCCCCC[C@H]1O[C@@H]1C(=O)O` (relative stereo) [Example 20, (2S*-trans)-3-Undecyloxiranecarboxylic Acid], the viability at 100 µg/mL was determined as 75.7% (168 h, read-out: Antiviral Effect (viable cells as % of uninfected controls), run 6, source V (cell free virus), virus kill 55.0%); 84.3% (168 h, read-out: Antiviral Effect (viable cells as % of uninfected controls), run 7, source V (cell free virus), virus kill 55.0%); 40.2% (168 h, read-out: Antiviral Effect (viable cells as % of uninfected controls), run 8, source V (cell free virus), virus kill 24.0%); 72.5% (168 h, read-out: Antiviral Effect (viable cells as % of uninfected controls), run 9, source V (cell free virus), virus kill 24.0%); 60.9% (H9, 168 h, read-out: Antiviral Effect (viable cells as % of uninfected controls), run 3, source C (virus producing H9 cells), virus kill 14.0%); 10% (H9, 168 h, read-out: Antiviral Effect (viable cells as % of uninfected controls), run 4, source C (virus producing H9 cells), virus kill 10.0%). For the same molecule, the viability at 100 µg/mL (H9, 168 h, read-out: Antiviral Effect (viable cells as % of uninfected controls), run 5, source C (virus producing H9 cells), virus kill 10.0%) is 10.2%. In addition, the viability at 4.07 µg/mL by setting is: (168 h, read-out: Antiviral Effect (viable cells as % of uninfected controls), run 10, source V (cell free virus), virus kill 25.0%) 45.5%; (168 h, read-out: Antiviral Effect (viable cells as % of uninfected controls), run 11*, source V (cell free virus), virus kill 23.0%, culture redosed with compound after 3 days) 87.4%. Further, the viability at 10 µg/mL came to 22.6% (H9, 168 h, read-out: Antiviral Effect (viable cells as % of uninfected controls), run 1, source C (virus producing H9 cells), virus kill 18.0%) and 59.5% (H9, 168 h, read-out: Antiviral Effect (viable cells as % of uninfected controls), run 2, source C (virus producing H9 cells), virus kill 14.0%).

Take `CCCCCCCCC[C@@H]1O[C@@H]1C(=O)O` [Example 22, (2-S-cis)-3-Nonyloxiranecarboxylic Acid]: the viability at 34.6 µg/mL is, setting by setting: (168 h, read-out: Antiviral Effect (viable cells as % of uninfected controls), run 8, source V (cell free virus), virus kill 54.0%) 85.5%; (168 h, read-out: Antiviral Effect (viable cells as % of uninfected controls), run 10, source V (cell free virus), virus kill 26.0%) 40.3%; (H9, 168 h, read-out: Antiviral Effect (viable cells as % of uninfected controls), run 4, source C (virus producing H9 cells), virus kill 16.0%) 25.9%; (H9, 168 h, read-out: Antiviral Effect (viable cells as % of uninfected controls), run 6, source C (virus producing H9 cells), virus kill 14.0%) 12.8%. For the same molecule, the viability at 29 µg/mL reads like this: (168 h, read-out: Antiviral Effect (viable cells as % of uninfected controls), run 9, source V (cell free virus), virus kill 55.0%) 68.5%; (168 h, read-out: Antiviral Effect (viable cells as % of uninfected controls), run 11, source V (cell free virus), virus kill 33.0%) 41.9%; (H9, 168 h, read-out: Antiviral Effect (viable cells as % of uninfected controls), run 5, source C (virus producing H9 cells), virus kill 13.0%) 18.5%. In addition, the viability at 24.8 µg/mL (168 h, read-out: Antiviral Effect (viable cells as % of uninfected controls), run 12, source V (cell free virus), virus kill 30.0%) stood at 23.1% and the viability at 24.8 µg/mL (168 h, read-out: Antiviral Effect (viable cells as % of uninfected controls), run 13*, source V (cell free virus), virus kill 20.0%, culture redosed with compound after 3 days) is 26.6%. Also, the viability at 10 µg/mL under setting [1] is 50.1%. Besides, the viability at 0.1 µg/mL (H9, 168 h, read-out: Antiviral Effect (viable cells as % of uninfected controls), run 2, source C (virus producing H9 cells), virus kill 20.0%) was found to be 25.6% and the viability at 0.1 µg/mL (H9, 168 h, read-out: Antiviral Effect (viable cells as % of uninfected controls), run 3, source C (virus producing H9 cells), virus kill 8.0%) was determined as 9.5%. The viability at 2.9 µg/mL (H9, 168 h, read-out: Antiviral Effect (viable cells as % of uninfected controls), run 7, 2.9 ug/ml, source C (virus producing H9 cells), virus kill 16.0%) came out at 11.5%.

For `COC(=O)[C@@H]1O[C@@H]1COCc1ccccc1` [Example 25, Methyl (2R-cis)-3-(benzyloxymethyl)oxirane Carboxylate], the viability at 10 µg/mL by setting is: (168 h, read-out: Antiviral Effect (viable cells as % of uninfected controls), run 4, source V (cell free virus), virus kill 55.0%) 46.5%; (H9, 168 h, read-out: Antiviral Effect (viable cells as % of uninfected controls), run 3, source C (virus producing H9 cells), virus kill 11.0%) 12.3%. Moreover, the viability at 1 µg/mL (168 h, read-out: Antiviral Effect (viable cells as % of uninfected controls), run 5, source V (cell free virus), virus kill 27.0%) stood at 49%. Also, the viability at 4.7 µg/mL runs as follows: (168 h, read-out: Antiviral Effect (viable cells as % of uninfected controls), run 6, source V (cell free virus)) 25.6%; (168 h, read-out: Antiviral Effect (viable cells as % of uninfected controls), run 7*, source V (cell free virus), culture redosed with compound after 3 days) 28.5%. Also, the viability at 100 µg/mL runs as follows: (H9, 168 h, read-out: Antiviral Effect (viable cells as % of uninfected controls), run 1, source C (virus producing H9 cells), virus kill 20.0%) 28.6%; (H9, 168 h, read-out: Antiviral Effect (viable cells as % of uninfected controls), run 2, source C (virus producing H9 cells), virus kill 13.0%) 19.5%.
